This note sets out measurements from ChEMBL document CHEMBL3091384, “Chemical probes to study ADP-ribosylation: synthesis and biochemical evaluation of inhibitors of the human ADP-ribosyltransferase ARTD3/PARP3” (J Med Chem, 2013).

One experiment is filed under the species Homo sapiens. The experiment can be described thus: Binding affinity to […] (unknown origin) assessed as change in melting temperature by thermal stabilization assay.
The target of experiment [1] is T1, Poly [ADP-ribose] polymerase 1 (Homo sapiens, UniProt P09874).
T1 sequence (P09874 whole entry): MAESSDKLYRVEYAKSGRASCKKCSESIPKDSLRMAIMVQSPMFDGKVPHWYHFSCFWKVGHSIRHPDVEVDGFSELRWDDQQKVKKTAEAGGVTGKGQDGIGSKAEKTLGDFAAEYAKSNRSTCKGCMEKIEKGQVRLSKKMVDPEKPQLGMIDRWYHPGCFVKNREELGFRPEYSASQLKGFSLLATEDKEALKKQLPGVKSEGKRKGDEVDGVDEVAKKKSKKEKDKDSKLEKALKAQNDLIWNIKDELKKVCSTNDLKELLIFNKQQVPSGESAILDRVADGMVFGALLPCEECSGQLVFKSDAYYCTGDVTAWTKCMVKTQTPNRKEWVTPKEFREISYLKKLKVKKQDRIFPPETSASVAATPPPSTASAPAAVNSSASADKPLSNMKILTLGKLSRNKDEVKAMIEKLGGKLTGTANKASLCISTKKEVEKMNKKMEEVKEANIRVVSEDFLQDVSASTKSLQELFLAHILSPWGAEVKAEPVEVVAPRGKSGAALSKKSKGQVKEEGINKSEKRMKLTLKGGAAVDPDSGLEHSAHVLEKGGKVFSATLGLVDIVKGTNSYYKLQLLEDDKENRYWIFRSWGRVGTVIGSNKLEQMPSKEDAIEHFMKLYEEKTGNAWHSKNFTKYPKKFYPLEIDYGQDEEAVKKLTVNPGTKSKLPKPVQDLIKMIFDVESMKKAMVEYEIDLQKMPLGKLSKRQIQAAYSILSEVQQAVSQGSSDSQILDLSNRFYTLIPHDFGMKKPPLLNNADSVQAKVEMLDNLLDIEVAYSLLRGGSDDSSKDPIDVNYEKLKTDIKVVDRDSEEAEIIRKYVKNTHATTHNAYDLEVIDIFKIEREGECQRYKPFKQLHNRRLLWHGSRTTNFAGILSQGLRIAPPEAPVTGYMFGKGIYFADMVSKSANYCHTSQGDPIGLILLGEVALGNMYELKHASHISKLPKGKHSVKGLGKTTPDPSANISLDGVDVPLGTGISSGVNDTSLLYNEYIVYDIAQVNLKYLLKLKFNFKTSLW
Experiment [2] deals with Poly [ADP-ribose] polymerase 14, ARTD8/PARP14 (Homo sapiens).
For experiment [3], the target named is Poly [ADP-ribose] polymerase 2 (Homo sapiens) (UniProt Q9UGN5).
Chain of Poly [ADP-ribose] polymerase 2 (Homo sapiens) (Q9UGN5 whole entry): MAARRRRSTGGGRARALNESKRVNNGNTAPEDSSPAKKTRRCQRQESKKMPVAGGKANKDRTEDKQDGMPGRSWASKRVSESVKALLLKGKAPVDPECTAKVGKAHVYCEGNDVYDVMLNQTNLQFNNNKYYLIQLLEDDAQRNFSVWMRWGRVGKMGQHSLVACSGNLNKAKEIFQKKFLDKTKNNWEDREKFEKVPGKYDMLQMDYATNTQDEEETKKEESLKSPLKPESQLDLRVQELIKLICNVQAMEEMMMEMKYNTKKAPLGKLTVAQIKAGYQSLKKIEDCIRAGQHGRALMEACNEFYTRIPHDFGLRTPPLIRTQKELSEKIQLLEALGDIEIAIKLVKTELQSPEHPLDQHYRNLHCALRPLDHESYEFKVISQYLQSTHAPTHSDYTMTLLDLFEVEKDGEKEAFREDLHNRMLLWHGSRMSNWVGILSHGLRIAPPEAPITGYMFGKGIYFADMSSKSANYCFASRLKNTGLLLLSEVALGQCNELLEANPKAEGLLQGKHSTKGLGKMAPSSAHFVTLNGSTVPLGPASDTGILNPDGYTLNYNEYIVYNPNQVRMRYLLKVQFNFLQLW
In experiment [4] the target is T1, Poly [ADP-ribose] polymerase 1. The source holds these as a separate data set.
The target of experiment [5] is T2, Protein mono-ADP-ribosyltransferase PARP3 (Homo sapiens) (UniProt Q9Y6F1).
T2 sequence (whole entry): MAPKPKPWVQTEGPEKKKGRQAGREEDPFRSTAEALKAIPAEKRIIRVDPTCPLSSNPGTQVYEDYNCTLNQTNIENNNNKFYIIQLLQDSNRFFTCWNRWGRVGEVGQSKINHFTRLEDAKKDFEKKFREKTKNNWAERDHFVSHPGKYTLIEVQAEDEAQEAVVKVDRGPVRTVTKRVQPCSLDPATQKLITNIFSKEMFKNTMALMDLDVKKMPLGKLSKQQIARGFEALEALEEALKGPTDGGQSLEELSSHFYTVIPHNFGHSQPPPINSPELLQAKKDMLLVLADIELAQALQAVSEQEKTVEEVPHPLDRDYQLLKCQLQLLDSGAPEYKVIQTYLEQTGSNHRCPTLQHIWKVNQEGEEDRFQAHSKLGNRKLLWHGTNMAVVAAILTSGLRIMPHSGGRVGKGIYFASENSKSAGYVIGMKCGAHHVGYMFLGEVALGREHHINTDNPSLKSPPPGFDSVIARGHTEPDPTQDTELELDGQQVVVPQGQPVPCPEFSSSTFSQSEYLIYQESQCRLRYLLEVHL

In the case of `O=C(CCc1nc2ccccc2c(=O)[nH]1)N[C@@H]1CCc2ccccc21`, the ΔTm – broadly, the change in melting temperature against a reference sample – in the experiment filed under Homo sapiens amounted to 0.8 °C; in experiment [2] it was 0.1 °C; in experiment [3], 1.92 °C; in experiment [4] it was 2.37 °C. Moreover, 780 nM corresponded to half-maximal inhibition in experiment [1] (IC50).
With `O=C(CCc1nc2ccccc2c(=O)[nH]1)NC(c1ccc(Cl)cc1)C1CC1` (racemic), the ΔTm in the experiment filed under Homo sapiens was 0.52 °C; in experiment [2] it was -0.28 °C; in experiment [3], 0.77 °C; in experiment [4] it was 2.17 °C; in experiment [5] it was 0.45 °C.
The like results for `C[C@H](NC(=O)CCc1nc2ccccc2c(=O)[nH]1)c1cccc(F)c1` were, in that order, 0.13 °C, -0.18 °C, 0.06 °C, 1 °C and 0.75 °C.
The like results for `O=C(CCc1nc2ccccc2c(=O)[nH]1)NCc1ccc([N+](=O)[O-])cc1` were, in that order, 0.97 °C, -0.11 °C, 0.53 °C, 4 °C and 3.29 °C.
The like results for `C[C@H](NC(=O)Cc1nc2ccccc2c(=O)[nH]1)c1ccccc1` were, in that order, 0.01 °C, 0.04 °C, -0.01 °C, 0.31 °C and 0.43 °C.
As to `C[C@H](NC(=O)CCc1nc2ccccc2c(=O)[nH]1)c1cccc(C(F)(F)F)c1`, the ΔTm in the experiment filed under Homo sapiens is 0.23 °C; in experiment [2], -0.37 °C; in experiment [3], -0.6 °C; in experiment [4], 0.25 °C; in experiment [5], 0.69 °C.
In the same order, the values of `O=C(CCc1nc2cc(Cl)ccc2c(=O)[nH]1)NC(c1ccccc1)c1ccccc1` are 0.2 °C, 0.82 °C, 0.83 °C, 0.11 °C and 0.35 °C.
In the case of `O=C(CCc1nc2ccccc2c(=O)[nH]1)N[C@H]1CCc2ccccc21`, the ΔTm in the experiment listed under Homo sapiens is 0.84 °C; in experiment [2] it was 0.18 °C; in experiment [3] it was 1.39 °C; in experiment [4] it was 2.38 °C. Half-maximal inhibition in experiment [1] (IC50) required 510 nM.
With `C[C@H](NC(=O)CCc1nc2ccccc2c(=O)[nH]1)c1ccc(Cl)cc1`, the ΔTm is 0.18 °C in the experiment filed under Homo sapiens; 0.04 °C in experiment [2]; -0.59 °C in experiment [3]; 0.04 °C in experiment [4]; 0.12 °C in experiment [5].
Regarding `O=C(CCCc1nc2ccccc2c(=O)[nH]1)N[C@H]1CCc2ccccc21`, the ΔTm in the experiment filed under Homo sapiens was 0.59 °C; in experiment [2], -0.18 °C; in experiment [3] it was 1.27 °C; in experiment [4], 1.88 °C; in experiment [5] it was 4.69 °C.
In the same order, the values of `C[C@@H](NC(=O)CCCc1nc2ccccc2c(=O)[nH]1)c1ccccc1` are 1.37 °C, -0.05 °C, 0.21 °C, 1.56 °C and 4.27 °C.
As to `C[C@H](NC(=O)CCc1nc2ccccc2c(=O)[nH]1)c1ccccc1F`, the ΔTm in the experiment listed under Homo sapiens is 0.12 °C; in experiment [2], 0.12 °C; in experiment [3], -0.46 °C; in experiment [4], 0.36 °C; in experiment [5] it was 0.42 °C.
For the molecule `O=C(NCc1ccccc1)NCc1nc2ccccc2c(=O)[nH]1`, the ΔTm was 0.34 °C in the experiment filed under Homo sapiens; -1.05 °C in experiment [2]; -0.23 °C in experiment [3]; 0.65 °C in experiment [4]; 2.91 °C in experiment [5].
